Measurements published in patent US8697739B2, “Bicyclic acetyl-CoA carboxylase inhibitors and uses thereof” (Novartis AG, priority 2010, dated 2014).

Target: T1, human acetyl-CoA carboxylase 2 (ACC2) (Homo sapiens, UniProt O00763)
T1 construct: The cDNA encoding amino acids 144 to 2458 of human acetyl-CoA carboxylase 2; made in house; host or cells: Sf9 insect cells (baculovirus, pFastBac1)
Assay: Acetyl-CoA carboxylase enzyme assay (malonyl-CoA formation by LC/MS/MS)
Format: biochemical
Details: recombinant human ACC2 (aa 144-2458); read-out: IC50 ACC2
Summary of the method: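 Malonyl-CoA formation was read by LC/MS/MS MRM against a [13C3]-malonyl-CoA internal standard, after acetic acid quench. The enzyme was baculovirus/Sf9-expressed human ACC2 residues 144–2458, given 15 minutes room-temperature compound preincubation in HEPES pH 7.5 buffer with MgCl2, citrate and DTT. Substrate solution held 50 μM acetyl-CoA, 120 μM ATP and 2 mM KHCO3.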

T1 sequence (O00763 144-2458): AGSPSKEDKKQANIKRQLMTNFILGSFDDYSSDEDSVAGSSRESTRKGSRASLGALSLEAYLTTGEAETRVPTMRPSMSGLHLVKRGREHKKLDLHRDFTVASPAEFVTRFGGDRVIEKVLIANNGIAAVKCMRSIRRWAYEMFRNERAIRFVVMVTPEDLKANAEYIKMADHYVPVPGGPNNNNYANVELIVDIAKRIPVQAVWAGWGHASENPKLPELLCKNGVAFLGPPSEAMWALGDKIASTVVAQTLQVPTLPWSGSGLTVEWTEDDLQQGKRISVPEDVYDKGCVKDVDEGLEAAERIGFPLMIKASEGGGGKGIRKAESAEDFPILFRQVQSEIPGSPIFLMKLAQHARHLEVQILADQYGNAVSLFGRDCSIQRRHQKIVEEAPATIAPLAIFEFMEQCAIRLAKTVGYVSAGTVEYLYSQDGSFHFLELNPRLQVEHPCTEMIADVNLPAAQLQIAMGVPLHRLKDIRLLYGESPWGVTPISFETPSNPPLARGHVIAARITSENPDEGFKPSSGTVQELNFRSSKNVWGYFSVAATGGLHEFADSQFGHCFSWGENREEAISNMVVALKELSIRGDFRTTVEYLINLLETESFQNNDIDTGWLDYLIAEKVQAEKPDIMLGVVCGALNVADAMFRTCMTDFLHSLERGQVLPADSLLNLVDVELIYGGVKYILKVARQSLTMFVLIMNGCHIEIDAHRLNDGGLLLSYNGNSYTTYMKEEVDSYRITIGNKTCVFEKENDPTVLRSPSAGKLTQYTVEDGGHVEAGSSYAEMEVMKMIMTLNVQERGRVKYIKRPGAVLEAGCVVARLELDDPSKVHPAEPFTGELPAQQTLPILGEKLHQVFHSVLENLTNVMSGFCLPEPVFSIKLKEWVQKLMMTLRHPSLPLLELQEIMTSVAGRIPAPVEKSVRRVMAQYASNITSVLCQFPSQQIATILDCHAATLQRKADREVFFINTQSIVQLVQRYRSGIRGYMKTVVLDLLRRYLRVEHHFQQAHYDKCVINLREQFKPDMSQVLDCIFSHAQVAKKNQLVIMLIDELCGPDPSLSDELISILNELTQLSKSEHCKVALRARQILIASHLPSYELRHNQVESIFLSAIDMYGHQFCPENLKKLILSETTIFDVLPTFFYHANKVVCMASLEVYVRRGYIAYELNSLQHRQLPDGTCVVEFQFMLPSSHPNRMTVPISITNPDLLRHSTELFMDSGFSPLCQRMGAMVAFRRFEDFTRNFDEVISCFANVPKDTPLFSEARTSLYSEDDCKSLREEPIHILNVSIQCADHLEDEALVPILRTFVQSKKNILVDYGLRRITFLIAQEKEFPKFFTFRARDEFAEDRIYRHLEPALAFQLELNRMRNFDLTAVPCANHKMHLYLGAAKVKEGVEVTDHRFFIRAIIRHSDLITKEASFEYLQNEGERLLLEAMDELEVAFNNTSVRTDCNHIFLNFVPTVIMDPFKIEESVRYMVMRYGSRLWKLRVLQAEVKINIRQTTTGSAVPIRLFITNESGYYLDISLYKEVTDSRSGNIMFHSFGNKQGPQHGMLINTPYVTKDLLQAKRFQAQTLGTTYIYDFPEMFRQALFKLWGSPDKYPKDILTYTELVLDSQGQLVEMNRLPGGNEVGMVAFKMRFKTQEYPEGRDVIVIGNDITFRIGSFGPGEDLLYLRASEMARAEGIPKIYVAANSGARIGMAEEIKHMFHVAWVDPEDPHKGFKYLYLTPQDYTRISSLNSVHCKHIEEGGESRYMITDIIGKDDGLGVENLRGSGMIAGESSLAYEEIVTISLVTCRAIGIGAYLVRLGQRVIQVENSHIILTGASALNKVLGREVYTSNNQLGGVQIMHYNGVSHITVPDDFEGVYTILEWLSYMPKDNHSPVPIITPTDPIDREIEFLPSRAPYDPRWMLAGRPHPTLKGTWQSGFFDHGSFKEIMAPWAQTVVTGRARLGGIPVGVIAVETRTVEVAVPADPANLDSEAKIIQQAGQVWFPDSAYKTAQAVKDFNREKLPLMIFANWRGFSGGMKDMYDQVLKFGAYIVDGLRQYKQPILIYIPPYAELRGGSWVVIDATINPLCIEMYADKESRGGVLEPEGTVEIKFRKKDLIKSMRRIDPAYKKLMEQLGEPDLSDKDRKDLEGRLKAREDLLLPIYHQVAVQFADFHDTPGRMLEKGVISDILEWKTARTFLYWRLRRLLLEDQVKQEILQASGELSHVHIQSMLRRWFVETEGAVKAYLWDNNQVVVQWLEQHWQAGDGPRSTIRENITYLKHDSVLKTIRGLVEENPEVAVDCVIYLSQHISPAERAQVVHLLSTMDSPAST

| IC50 [nM] | SMILES |
| --- | --- |
| 80 | COCCNc1ccc2cc(S(=O)(=O)N[C@H]3CC[C@H](C(=O)N[C@H](C)c4ccc(F)cc4)CC3)ccc2n1 [Example 201, (1r,4R)-N-((R)-1-(4-fluorophenyl)ethyl)-4-(2-(2-methoxyethylamino)quinoline-6-sulfonamido)cyclohexanecarboxamide] |
| 20 | C[C@@H](NC(=O)[C@H]1CC[C@H](NS(=O)(=O)c2ccc3nc(-c4ccccc4)ccc3c2)CC1)c1ccc(F)cc1 [Example 202, (1r,4R)-N-((R)-1-(4-fluorophenyl)ethyl)-4-(2-phenylquinoline-6-sulfonamido)cyclohexanecarboxamide] |
| 305 | C[C@@H](NC(=O)[C@H]1CC[C@H](NS(=O)(=O)c2ccc3nc(NCCC(=O)O)ccc3c2)CC1)c1ccc(F)cc1 [Example 203, 3-(6-(N-((1R,4r)-4-((R)-1-(4-fluorophenyl)ethylcarbamoyl)cyclohexyl)sulfamoyl)quinolin-2-ylamino)propanoic acid] |
| 80 | CCOc1ccc2cc(S(=O)(=O)N[C@H]3CC[C@H](C(=O)N4CCNCC4c4ccccc4)CC3)ccc2n1 (some centres unmarked) [Example 204, 2-ethoxy-N-((1r,4r)-4-(2-phenylpiperazine-1-carbonyl)cyclohexyl)quinoline-6-sulfonamide] |
| 20 | CCOc1ccc2cc(S(=O)(=O)NC3CCC(C(=O)NC(CO)c4ccccc4)CC3)ccc2n1 [Example 205, (1r,4S)-4-(2-ethoxyquinoline-6-sulfonamido)-N-((S)-2-hydroxy-1-phenylethyl)cyclohexanecarboxamide] |
| 20 | CCOc1ccc2cc(S(=O)(=O)N[C@H]3CC[C@H](C(=O)N[C@@H](c4ccccc4)C(C)(C)O)CC3)ccc2n1 [Example 206, (1r,4S)-4-(2-ethoxyquinoline-6-sulfonamido)-N-((S)-2-hydroxy-2-methyl-1-phenylpropyl)cyclohexanecarboxamide] |
| 355 | COCCNC(=O)c1ccc2cc(S(=O)(=O)N[C@H]3CC[C@H](C(=O)N[C@H](C)c4ccc(F)cc4)CC3)ccc2n1 [Example 207, 6-(N-((1R,4r)-4-((R)-1-(4-fluorophenyl)ethylcarbamoyl)cyclohexyl)sulfamoyl)-N-(2-methoxyethyl)quinoline-2-carboxamide] |
| 20 | CCOC(=O)N1CCNc2ncc(S(=O)(=O)N[C@H]3CC[C@H](C(=O)N[C@H](C)c4ccc(F)cc4)CC3)cc21 [Example 209, ethyl 7-(N-((1R,4r)-4-((R)-1-(4-fluorophenyl)ethylcarbamoyl)cyclohexyl)sulfamoyl)-3,4-dihydropyrido[3,2-b]pyrazine-1(2H)-carboxylate] |
| 225 | C[C@@H](NC(=O)[C@H]1CC[C@H](NS(=O)(=O)c2cnc3c(c2)N(C(=O)OC2CCCCC2)CCN3)CC1)c1ccc(F)cc1 [Example 210, cyclohexyl 7-(N-((1R,4r)-4-((R)-1-(4-fluorophenyl)ethylcarbamoyl)cyclohexyl)sulfamoyl)-3,4-dihydropyrido[3,2-b]pyrazine-1(2H)-carboxylate] |
| 180 | CCOc1ccc2cc(S(=O)(=O)N[C@H]3CC[C@H](C(=O)N[C@H](CC(=O)OC(C)(C)C)c4ccccc4)CC3)ccc2n1 [Example 211, (R)-tert-butyl 3-((1r,4R)-4-(2-ethoxyquinoline-6-sulfonamido)cyclohexanecarboxamido)-3-phenylpropanoate] |
| 165 | CC(C)COC(=O)N1CCC(C)(C)c2ccc(S(=O)(=O)N[C@H]3CC[C@H](C(=O)N[C@H](C)c4ccc(F)cc4)CC3)cc21 [Example 212, isobutyl 7-(N-((1R,4r)-4-((R)-1-(4-fluorophenyl)ethylcarbamoyl)cyclohexyl)sulfamoyl)-4,4-dimethyl-3,4-dihydroquinoline-1(2H)-carboxylate] |
| 95 | C[C@@H](NC(=O)[C@H]1CC[C@H](NS(=O)(=O)c2ccc3nc(N4CCOCC4)ccc3c2)CC1)c1ccc(F)cc1 [Example 213, (1r,4R)-N-((R)-1-(4-fluorophenyl)ethyl)-4-(2-morpholinoquinoline-6-sulfonamido)cyclohexanecarboxamide] |
| 365 | CC(C)COC(=O)N1CCN(C(=O)OCC(C)C)c2cc(S(=O)(=O)N[C@H]3CC[C@H](C(=O)N[C@H](C)c4ccc(F)cc4)CC3)ccc21 [Example 214, diisobutyl 6-(N-((1R,4r)-4-((R)-1-(4-fluorophenyl)ethylcarbamoyl)cyclohexyl)sulfamoyl)-2,3-dihydroquinoxaline-1,4-dicarboxylate] |
| 125 | C[C@@H](NC(=O)[C@H]1CC[C@H](NS(=O)(=O)c2ccc3nc(NCCN(C)C)ccc3c2)CC1)c1ccc(F)cc1 [Example 215, (1r,4R)-4-(2-(2-(dimethylamino)ethylamino)quinoline-6-sulfonamido)-N-((R)-1-(4-fluorophenyl)ethyl)cyclohexanecarboxamide] |
| 180 | C[C@@H](NC(=O)[C@H]1CC[C@H](NS(=O)(=O)c2ccc3nc(N4CCCCC4)ccc3c2)CC1)c1ccc(F)cc1 [Example 216, (1r,4R)-N-((R)-1-(4-fluorophenyl)ethyl)-4-(2-(piperidin-1-yl)quinoline-6-sulfonamido)cyclohexanecarboxamide] |
| 15 | CC(C)COC(=O)N1CCNc2ccc(S(=O)(=O)N[C@H]3CC[C@H](C(=O)N[C@H](C)c4ccc(F)cc4)CC3)cc21 [Example 217, isobutyl 7-(N-((1R,4r)-4-((R)-1-(4-fluorophenyl)ethylcarbamoyl)cyclohexyl)sulfamoyl)-3,4-dihydroquinoxaline-1(2H)-carboxylate] |
| 20 | C[C@@H](NC(=O)[C@H]1CC[C@H](NS(=O)(=O)c2ccc3nc(-c4cccnc4)ccc3c2)CC1)c1ccc(F)cc1 [Example 218, (1r,4R)-N-((R)-1-(4-fluorophenyl)ethyl)-4-(2-(pyridin-3-yl)quinoline-6-sulfonamido)cyclohexanecarboxamide] |
| 495 | C[C@@H](NC(=O)[C@H]1CC[C@H](NS(=O)(=O)c2ccc3nc(CCC(=O)O)ccc3c2)CC1)c1ccc(F)cc1 [Example 219, 3-(6-(N-((1R,4r)-4-((R)-1-(4-fluorophenyl)ethylcarbamoyl)cyclohexyl)sulfamoyl)quinolin-2-yl)propanoic acid] |
| 875 | CC(C)CCC(=O)N1CCNc2ncc(S(=O)(=O)N[C@H]3CC[C@H](C(=O)N[C@H](C)c4ccc(F)cc4)CC3)cc21 [Example 220, (1r,4R)-N-((R)-1-(4-fluorophenyl)ethyl)-4-(1-(4-methylpentanoyl)-1,2,3,4-tetrahydropyrido[3,2-b]pyrazine-7-sulfonamido)cyclohexanecarboxamide] |
| < 10 | COC(=O)N1CCNc2ccc(S(=O)(=O)NC3CCC(C(=O)NC(C)c4ccc(F)cc4)CC3)cc21 [Example 221, methyl 7-(N-((1R,4r)-4-((R)-1-(4-fluorophenyl)ethylcarbamoyl)cyclohexyl)sulfamoyl)-3,4-dihydroquinoxaline-1(2H)-carboxylate] |
| 40 | COC(=O)N1CCNc2ncc(S(=O)(=O)N[C@H]3CC[C@H](C(=O)N[C@H](C)c4ccc(F)cc4)CC3)cc21 [Example 222, methyl 7-(N-((1R,4r)-4-((R)-1-(4-fluorophenyl)ethylcarbamoyl)cyclohexyl)sulfamoyl)-3,4-dihydropyrido[3,2-b]pyrazine-1(2H)-carboxylate] |
| 205 | C[C@@H](NC(=O)[C@H]1CC[C@H](NS(=O)(=O)c2ccc3c(c2)C(=O)NCC3)CC1)c1ccc(F)cc1 [Example 223, (1r,4R)-N-((R)-1-(4-fluorophenyl)ethyl)-4-(1-oxo-1,2,3,4-tetrahydroisoquinoline-7-sulfonamido)cyclohexanecarboxamide] |
| 60 | COC(=O)C1CCc2ccc(S(=O)(=O)N[C@H]3CC[C@H](C(=O)N[C@H](C)c4ccc(F)cc4)CC3)cc2N1C (stereo partly drawn) [Example 224, methyl 7-(N-((1R,4r)-4-((R)-1-(4-fluorophenyl)ethylcarbamoyl)cyclohexyl)sulfamoyl)-1-methyl-1,2,3,4-tetrahydroquinoline-2-carboxylate] |
| 85 | C[C@@H](NC(=O)[C@H]1CC[C@H](NS(=O)(=O)c2ccc3c(c2)N(C)C(C(=O)O)CC3)CC1)c1ccc(F)cc1 (stereo partly drawn) [Example 225, 7-(N-((1R,4r)-4-((R)-1-(4-fluorophenyl)ethylcarbamoyl)cyclohexyl)sulfamoyl)-1-methyl-1,2,3,4-tetrahydroquinoline-2-carboxylic acid] |
| 10 | C[C@@H](NC(=O)[C@H]1CC[C@H](NS(=O)(=O)c2ccc3c(c2)Cc2ccccc2-3)CC1)c1ccc(F)cc1 [Example 226, (1r,4R)-4-(9H-fluorene-2-sulfonamido)-N-((R)-1-(4-fluorophenyl)ethyl)cyclohexanecarboxamide] |
| 15 | Cc1cc(-c2ccc3cc(S(=O)(=O)N[C@H]4CC[C@H](C(=O)N[C@H](C)c5ccc(F)cc5)CC4)ccc3n2)cc(C)n1 [Example 227, (1r,4R)-4-(2-(2,6-dimethylpyridin-4-yl)quinoline-6-sulfonamido)-N-((R)-1-(4-fluorophenyl)ethyl)cyclohexanecarboxamide] |
| 213 | CCOc1ccc2cc(S(=O)(=O)N[C@H]3CC[C@H](C(=O)N[C@H](CC(=O)O)c4ccccc4)CC3)ccc2n1 [Example 228, (R)-3-((1r,4R)-4-(2-ethoxyquinoline-6-sulfonamido)cyclohexanecarboxamido)-3-phenylpropanoic acid] |
| 20 | Cc1cc(-c2ccc3cc(S(=O)(=O)N[C@H]4CC[C@H](C(=O)N[C@H](C)c5ccc(F)cc5)CC4)ccc3n2)ccn1 [Example 229, (1r,4R)-N-((R)-1-(4-fluorophenyl)ethyl)-4-(2-(2-methylpyridin-4-yl)quinoline-6-sulfonamido)cyclohexanecarboxamide] |
| 60 | C[C@@H](NC(=O)[C@H]1CC[C@H](NS(=O)(=O)c2ccc3nc(-c4ccccn4)ccc3c2)CC1)c1ccc(F)cc1 [Example 230, (1r,4R)-N-((R)-1-(4-fluorophenyl)ethyl)-4-(2-(pyridin-2-yl)quinoline-6-sulfonamido)cyclohexanecarboxamide] |
